# Measurements as given in publication PMC12040169 (PLOS Biology, 2025).
# Assay: in vitro
# Conditions: human, hela cells, % viability
row,SMILES,"viability at 28.5 h, 10 µM"
1,O=C(Nc1ccc(C(=O)Nc2cccc(-c3nc4ccccc4o3)c2)cc1)c1ccc([N+](=O)[O-])cc1 [CBK262606],96.6%
2,O=C(CSc1ccccn1)Nc1ccc(C(=O)O)cc1 [CBK286605],87.2%
3,Oc1c(-c2cccc(C(F)(F)F)c2)cnc2cccnc12 [CBK081290],87.1%
4,CN(C)c1ncccc1CNC(=O)c1ccccn1 [CBK297774],81.5%
5,CC(C)CN1CCCN(S(=O)(=O)c2ccc(C(F)(F)F)cc2Cl)CC1 [CBK062943],86.5%
6,COCCN(C)C(=O)c1cn2cc(-c3cc(C)oc3C)n(C)c(=O)c2n1 [CBK306605],80.5%
7,COCC(=O)N1c2ccccc2CC[C@@H]1C(=O)OC [CBK285472],103%
8,Cc1c(C#N)c(=O)ncn1Cc1ccncc1 [CBK021603],102%
9,CCOc1ccc(NC(=O)Cn2c3c(c(-c4ccccc4)cc2=O)CCCC3)cc1 [CBK294457],85.8%
10,Cn1nnnc1SCCNC(=O)Nc1cccc(N2CCOC2=O)c1 [CBK306593],84.4%
11,CC1=NN(C(=O)CSCc2ccccc2)C(O)(c2ccc(Cl)cc2)C1 (stereo not shown) [CBK267136],92.7%
12,O=S(=O)(NC1CCCCC1Sc1nnc(Nc2ccccc2)s1)c1ccccc1 (stereo not shown) [CBK266378],96.7%
13,O=C(O)c1ccccc1OCCCCOc1cccc2cccnc12 [CBK264136],87.2%
14,Cc1csc(C(Cc2ccsc2)NC(=O)C2CC3C=CC2O3)n1 (stereo not shown) [CBK285108],102%
15,Cc1nn(C)c(C)c1CCn1cncc1-c1ccc2c(c1)CC(C)N2C (stereo not shown) [CBK281788],76%
16,Cc1cc(S(=O)(=O)NCCn2nc(C)c(C)c2C)ccc1F [CBK281382],71.9%
17,CC1(C)CC(=O)c2cnc3cc(-c4ccco4)nn3c2C1 [CBK283142],102%
18,COc1ccc(CC(=O)NNC(=O)Nc2ccc(Cl)c(Cl)c2)cc1 [CBK262652],92.6%
19,Cc1cccc(CN(CCN)C(=O)NC2C[C@H]2c2ccccc2)n1 (stereo partly shown) [CBK046220C],120%
20,CC(C)CCNC(=O)N(CCC#N)C1CCCCC1 [CBK156378],91.6%
21,COc1ccc(CNC(=O)NC(=O)C2CCN(CCc3c[nH]c4ccccc34)CC2)c(OC)c1 [CBK034864],90%

row,SMILES,"viability at 28.5 h, 10 µM"
1,O=C(CCc1ccc(S(=O)(=O)NC2CCCCC2)cc1)Nc1ccc2c(c1)OCCO2 [CBK266845],95.2%
2,Cc1c(C(=O)O)ccc2c1N[C@@H](c1ccc(OCC#N)cc1)C1CC=CC21 (stereo partly shown) [CBK287124],89.2%
3,O=C(O)CC1S\C(=N/N=C\C=C/c2ccccc2)N(c2ccc(O)cc2)C1=O (stereo not shown) [CBK263688],93%
4,CCOC(=O)c1c(N)sc(C(=O)Nc2cccc([N+](=O)[O-])c2)c1C [CBK066829],91.2%
5,CSc1nc2ccc(NS(=O)(=O)c3ccc(Cl)c(C(=O)O)c3)cc2s1 [CBK297541],82.6%
6,Cc1ccc(C2(O)CCN(CCNC(=O)c3cccs3)CC2)cc1 [CBK283322],87.8%
7,CC(C)(C)Cc1ccc(CC(=O)O)c(OCc2ccccc2)n1 [CBK012508],92.6%
8,COc1ccc(C(=O)N2C[C@@H]3C[C@H](C2)c2ccc(NC(=O)C4CC4)c(=O)n2C3)cc1 [CBK289072],90%
9,CCCCN(C)c1c(CC)nc2ccc(C(=O)NC3=NC(=O)CS3)cn12 [CBK145464],102%
10,Cc1cc(N2CCCC2=O)cc(C)c1S(N)(=O)=O [CBK288458],89.9%
11,C[C@H](Nc1cncc(-c2cccc(CO)c2)n1)c1ccccc1 [CBK065512],102%
12,COc1cc(S(=O)(=O)NCCOc2ccc(C(=O)O)cc2)c(OC)cc1Cl [CBK299825],92.1%
13,Cc1cc2c(cc3c(=O)n(CC(=O)N4CCCCC4)nc(C)n32)o1 [CBK283630],83.4%
14,COc1ccc(Oc2nccc(N3CCCN(CCCO)CC3)n2)cc1OC [CBK084158],93.5%
15,CCC(CO)Nc1cncc(-c2cccc(O)c2)n1 (stereo not shown) [CBK037777],96%
16,O=c1ccc(-c2cccs2)nn1C[C@H]1CCCN1 [CBK284313],88.6%
17,COC(=O)CCC(=O)N1CCC2(CCN(Cc3ccccc3)C2)C1 (stereo not shown) [CBK136852],116%
18,Cc1ccc(CNC(=O)Cc2csc(N3CCCC3=O)n2)n1C [CBK305642],98.6%
19,Cc1c(-c2ccc(OCC(N)=O)cc2)nc2ccc(Br)cc2c1C(=O)O [CBK287050],93.1%
20,O=C(CN1CCCCC1)Nc1cccc(-n2cnnn2)c1 [CBK027661],105%
21,O=C1CC(c2ccc(F)cc2)CC(=O)C1=CNCCN1CCN(C(=S)Nc2ccccc2)CC1 (stereo not shown) [CBK264784],94.1%

row,SMILES,"viability at 28.5 h, 10 µM"
1,CCCc1ccc(S(=O)(=O)Nc2cccc(C(=O)OCC)c2)cc1 [CBK034332],92.5%
2,CC(=O)NCCN1CC[C@H]2CN(C(=O)COc3ccccc3)CC[C@H]2CC1=O [CBK288783],84.6%
3,O=C1COc2ccccc2C/C=C/CC2(CCN(C(=O)c3n[nH]c4ccccc34)CC2)CN1 [CBK292021],88.9%
4,CC1CCc2c(C(=O)Nc3ncc(Cc4ccccc4)s3)csc2C1 (stereo not shown) [CBK300531],94.6%
5,O=C(O)CCC/N=C1/CCCc2ccccc2N1 [CBK261435],104%
6,CCCCC(=O)Nc1ccc(C(=O)N2CCN(C)CC2)cc1 [CBK304662],105%
7,COCCOCCOc1ccccc1OCCOCCOC [CBK009636],89%
8,O=c1[nH]c(=O)c2cc(S(=O)(=O)Nc3cccc(CCc4ccncc4)c3)ccc2[nH]1 [CBK286397],103%
9,CN1CCC(Oc2nc3ccccc3nc2C(F)(F)F)CC1 [CBK113299],90.1%
10,Cc1cccc(N2CCN(CC(=O)Nc3cc(Cl)ccc3C#N)CC2)c1 [CBK306055],109%
11,O=C(Nc1cccnc1N1CCNCC1)c1ccccn1 [CBK029425T],116%
12,COc1ccc(NC(=O)c2ccc(N(C)Cc3ccccc3)c([N+](=O)[O-])c2)cc1 [CBK268094],86.4%
13,Cc1ccc(CO)cc1NC(=O)[C@@H]1CN(Cc2ccccc2)C[C@H]1C(=O)c1ccc(F)cc1 [CBK286431],105%
14,COc1ccc(NC(=O)CSc2nc3ccccc3n2-c2ccccc2)c([N+](=O)[O-])c1 [CBK266060],91.8%
15,CCN(CC)C(=O)CN1CCN(c2nccnc2OCCN2C(=O)CCC2=O)CC1 [CBK084297],102%
16,Cc1sc2nc(SCc3cc(O)[nH]n3)nc(N)c2c1C [CBK264585],88.6%
17,COc1ccc(COc2nc3ccccc3nc2NC(C)C)cc1OC [CBK116610],93.5%
18,O=S(=O)(NCc1cccc(F)c1F)c1cc2c(N3CCNCC3)nccc2s1 [CBK047588C],103%
19,FC(F)(F)c1ccnc(Sc2cccc(Cl)c2)n1 [CBK115247],98.5%
20,O=C(Cc1ccccc1F)N1CCC(c2n[nH]c3ncccc23)CC1 [CBK284908],89.6%

# Same assay, conditions: human, hela cells, % viability, bulk resorufin, single well
row,SMILES,"viability at 28.5 h, 10 µM"
1,O=C(Nc1ccccc1F)N1CCC2(CC1)OCc1cc(-c3ccco3)ccc1O2 [CBK060597],92%
2,O=C1NC(=O)N(c2ccc(O)cc2)C(=O)/C1=C/c1ccc(OCc2ccc(Cl)cc2Cl)cc1 [CBK263842],92.1%
